Measurements from patent US11324725B2, “Compositions and methods for the inhibition of pruritus” (The United States of America, as represented by the …, priority 2017, dated 2022).
Entries after “also recorded” stand apart in the source; their conditions may differ.

Target: T1, hNpr2 (Homo sapiens, UniProt P20594)
T1 sequence (P20594 23-1047): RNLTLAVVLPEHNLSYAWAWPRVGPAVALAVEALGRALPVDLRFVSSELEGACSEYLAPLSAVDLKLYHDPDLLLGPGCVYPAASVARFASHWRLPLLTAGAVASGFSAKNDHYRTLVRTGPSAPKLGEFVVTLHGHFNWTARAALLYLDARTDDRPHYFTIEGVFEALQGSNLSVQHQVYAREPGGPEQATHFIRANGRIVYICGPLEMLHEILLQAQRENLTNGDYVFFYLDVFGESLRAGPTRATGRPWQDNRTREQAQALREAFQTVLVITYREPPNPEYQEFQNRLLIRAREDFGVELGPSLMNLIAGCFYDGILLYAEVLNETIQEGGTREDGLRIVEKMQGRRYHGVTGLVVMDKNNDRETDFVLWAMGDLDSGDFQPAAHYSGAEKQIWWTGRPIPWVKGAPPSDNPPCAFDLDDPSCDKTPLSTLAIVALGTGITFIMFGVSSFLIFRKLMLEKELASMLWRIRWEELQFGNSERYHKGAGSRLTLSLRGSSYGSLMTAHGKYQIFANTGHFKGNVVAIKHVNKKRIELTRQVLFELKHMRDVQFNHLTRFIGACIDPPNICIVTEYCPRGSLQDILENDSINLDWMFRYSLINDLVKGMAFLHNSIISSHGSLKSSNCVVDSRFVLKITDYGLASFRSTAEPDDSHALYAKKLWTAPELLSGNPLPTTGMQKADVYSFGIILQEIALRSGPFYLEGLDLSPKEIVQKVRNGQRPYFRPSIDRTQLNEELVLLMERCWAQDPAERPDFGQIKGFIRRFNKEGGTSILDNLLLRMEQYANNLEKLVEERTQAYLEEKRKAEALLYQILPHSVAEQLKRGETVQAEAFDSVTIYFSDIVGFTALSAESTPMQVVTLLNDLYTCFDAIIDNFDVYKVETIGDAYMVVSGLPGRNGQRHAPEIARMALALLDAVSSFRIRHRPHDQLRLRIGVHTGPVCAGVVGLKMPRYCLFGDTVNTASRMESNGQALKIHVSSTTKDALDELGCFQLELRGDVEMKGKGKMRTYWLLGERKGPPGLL
Assay: Counter-screen, Nppc-stimulated HEK-hNpr2-cGMP-sensor cells
Format: cell-based
Conditions: for IC50 / Imax: 1 nM Nppc-stimulated; for Imax: read-out: Imax, HEK-hNpr2-cGMP-sensor cells, −100% = no agonist; for Inhibition of Nppc-induced hNpr2 activity (in words): HEK-hNpr2-cGMP-sensor cells
Excerpt: In order to identify small molecular compounds that inhibit the Npr1 receptor a high-throughput assay to probe inhibition of the receptor guanylate cyclase Npr1 was developed. The assay was designed taking advantage of Promega's GloSensor™ technology (Promega, Madison, Wis.). This technology involves the expression of a cyclic guanosine monophosphate (cGMP) biosensor, comprised of a firefly luciferase variant that was coupled to the cGMP binding domain of human phosphodiesterase 5A, and loading of cells with a cell-permeable luciferase substrate to monitor cGMP production by Npr1 in real time in live cells. Briefly, human embryonic kidney 293 cells stably expressing the human Npr1 and the pGloSensor™-40F cGMP vector (“pGloSensor™-40F”) were generated. Stimulating these cells with the Npr1 agonists human NppA or NppB, luciferase-induced light production could be detected in a dose-dependent manner. HEK293 cells stably expressing human Npr2 and pGS-40F and cells only expressing pGS-40F were also generated to conduct secondary counter screens. In these cells, NppC or sodium nitroprusside were used to stimulate Npr2 or soluble guanylate cyclase which is endogenously expressed in HEK293 cells, respectively. The Npr2-NppC counter screen was employed to search for agents that minimally effected this agonist-receptor interaction. The Npr2-NppC system was used because the side effects of most drugs occur on related receptors. Npr1 and Npr2 are the most related receptors in sequence and function and there are no additional active receptor subtypes in this family of receptors. The procedure is described in detail below.
Counter-screens were performed with HEK293-hNpr2-cGMP-sensor and HEK293-cGMP-sensor cells. These cells were stimulated with 1 nM NppC or 50 μM sodium nitroprusside, respectively, but otherwise the assay was conducted as described for HEK-hNpr1-cGMP-sensor cells. Pre-agonist controls were the same for all three assays, but normalization of post-agonist data differed between assays. For HEK-hNpr1-cGMP-sensor cells, −100% activity in post-agonist data was defined as described for primary screening, while for HEK-hNpr2-cGMP-sensor and HEK-cGMP-sensor cells, the average signal of DMSO-treated wells with 2% GloSensor™ reagent and the respective agonist was defined as 0% and the average signal of wells without agonist as −100% activity and data were normalized accordingly. Compounds directly interacting with the pGloSensor™-40F reporter system in HEK293 cells stimulated with sodium nitroprusside were eliminated as false positives. Effects of compounds on HEK293 cells stimulated with NppC and stably expressing hNpr2 and pGS-40F were tested for receptor selectivity.

| SMILES | IC50 [µM] | Imax [%] | Inhibition of Nppc-induced hNpr2 activity (in words) |
| --- | --- | --- | --- |
| O=C(Cc1ccc(Cl)cc1)N1Cc2ccccc2CC2(CCCN2CC2CCNC2)C1 (stereo not shown) [JS-2, 2-(4-chlorophenyl)-1-(1′-(pyrrolidin-3-ylmethyl)-1,5-dihydrospiro[benzo[c]azepine-4,2′-pyrrolidin]-2(3H)-yl)ethan-1-one] | 6.4 ± 1.1 | -88 ± 5 | – |
| Cc1noc(C)c1-c1cc(-c2ccccc2Oc2ccccc2)cn2cncc12 [JS-5, 3,5-dimethyl-4-(6-(2-phenoxyphenyl)imidazo[1,5-a]pyridin-8-yl)isoxazole] | 12 ± 1.1 | -97 ± 4 | inhibited hNpr2 with similar potency to hNpr1; also recorded: antagonizes natriuretic peptide-induced activation |
| Cc1cc(CNC(=O)c2ccc3c(c2)n(CC2CC2)c(=O)n3C2CCCCC2)on1 [JS-11, 1-cyclohexyl-3-(cyclopropylmethyl)-N-((3-methylisoxazol-5-yl)methyl)-2-oxo-2,3-dihydro-1H-benzo[d]imidazole-5-carboxamide] | 5 ± 1.1 | -97 ± 4 | inhibited hNpr2 with similar potency to hNpr1; also recorded: antagonizes natriuretic peptide-induced activation |
| COc1ccccc1-c1n[nH]c2ncc(C(=O)NCc3cccnc3)nc12 [JS-6, 3-(2-methoxyphenyl)-N-(pyridin-3-ylmethyl)-1H-pyrazolo[3,4-b]pyrazine-5-carboxamide] | 6.9 ± 1.1 | -102 ± 3 | – |
| Cc1nn2c(c1-c1ccccc1OCc1ccccc1)N(C(=O)Cc1ccccn1)CCC2 [JS-9, 1-(3-(2-(benzyloxy)phenyl)-2-methyl-6,7-dihydropyrazolo[1,5-a]pyrimidin-4(5H)-yl)-2-(pyridin-2-yl)ethan-1-one] | 20 ± 16 | -102 ± 16 | – |
| COc1cc(CN2CCC(C)(NC(C)=O)CC2)cc(-c2ccncc2)c1 [JS-4, N-(1-(3-methoxy-5-(pyridin-4-yl)benzyl)-4-methylpiperidin-4-yl)acetamide] | 11 ± 1.2 | -100 ± 5 | – |
| CCC(CC)c1cc([C@H]2CN3CC[C@H]2C[C@@H]3CNS(=O)(=O)c2cccs2)nc(-c2ccncc2)n1 [JS-3, N-(((2R,4S,5R)-5-(6-(pentan-3-yl)-2-(pyridin-4-yl)pyrimidin-4-yl)quinuclidin-2-yl)methyl)thiophene-2-sulfonamide] | 17 ± 20 | -126 ± 23 | – |
| N#Cc1ccccc1CN1CCCC(C(=O)NCc2ccccc2)CCNC(=O)CC1 (stereo not shown) [JS-13, N-benzyl-1-(2-cyanobenzyl)-4-oxo-1,5-diazacycloundecane-8-carboxamide] | 5.9 ± 1.3 | -108 ± 8 | – |
| O=C(NCc1cccnc1)c1cnc2[nH]nc(-c3ccccc3)c2n1 [JS-7, 3-phenyl-N-(pyridin-3-ylmethyl)-1H-pyrazolo[3,4-b]pyrazine-5-carboxamide] | 16 ± 1.3 | -122 ± 11 | – |
| Cl.O=C1Nc2ccccc2CN(CC2CCCCC2)C12CCNCC2 [JS-1, 4-(cyclohexylmethyl)-4,5-dihydrospiro[benzo[e][1,4]diazepine-3,4′-piperidin]-2(1H)-one hydrochloride] | 7.2 ± 1.3 | -106 ± 8 | – |
| Cc1nn2c(c1-c1ccccc1OCc1ccccc1)N(C(=O)Cc1ccc3c(c1)OCO3)CCC2 [JS-8, 2-(benzo[d][1,3]dioxol-5-yl)-1-(3-(2-(benzyloxy)phenyl)-2-methyl-6,7-dihydropyrazolo[1,5-a]pyrimidin-4(5H)-yl)ethan-1-one] | 9.1 ± 1.4 | -127 ± 13 | inhibited hNpr2 with similar potency to hNpr1; also recorded: antagonizes natriuretic peptide-induced activation |
| COc1ccc(C2(C(=O)N3CCC4(CC3)c3nccn3-c3ccccc3CN4C)CC2)cc1 [JS-12, (1-(4-methoxyphenyl)cyclopropyl)(5-methyl-5,6-dihydrospiro[benzo[f]imidazo[1,2-a][1,4]diazepine-4,4′-piperidin]-1′-yl)methanone] | 5.7 ± 1.1 | -96 ± 4 | – |
| Cc1nn2c(c1-c1ccccc1Oc1ccccc1)N(C(=O)Cc1ccc3c(c1)OCO3)CCC2 [JS-10, 2-(benzo[d][1,3]dioxol-5-yl)-1-(2-methyl-3-(2-phenoxyphenyl)-6,7-dihydropyrazolo[1,5-a]pyrimidin-4(5H)-yl)ethan-1-one] | 5.4 ± 1.4 | -86 ± 5 | – |
| CN(Cc1ccccc1)C(=O)c1cn2ccnc(-c3ccccc3)c2n1 [JS-14, N-benzyl-N-methyl-8-phenylimidazo[1,2-a]pyrazine-2-carboxamide] | 20 ± 1.1 | -91 ± 8 | – |
